Holding throughout (format): biochemical
The target of assay [1] is T1, human JAK1 (a.a. 837-1142) (Homo sapiens, UniProt P23458).
T1 construct: human JAK1 (a.a. 837-1142); His tag (N); made in house; host or cells: insect cells (baculovirus)
In words: In vitro JAK kinase assay (HTRF, phosphorylation of a biotinylated peptide), JAK1. The following applies: read-out: JAK1 IC50. The method, boiled down:
(§1)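 Phosphorylation of a biotinylated peptide by the JAK kinase domain, detected by HTRF with Eu-Py20 and SA-APC. ATP was 90 μM for JAK1, 30 μM for JAK2 and 3 μM for JAK3. Reactions ran 1 h at room temperature and were stopped with EDTA, followed by 40 min antibody binding.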
(In general: In TR-FRET formats the signal depends on donor and acceptor labels being close together.)

Assay [2] deals with T2, human JAK2 (a.a. 828-1132) (Homo sapiens, UniProt O60674).
T2 construct: JAK2 (a.a. 828-1132); His tag (N); made in house; host or cells: insect cells (baculovirus)
Nature of the assay: In vitro JAK kinase assay (HTRF, phosphorylation of a biotinylated peptide), JAK2. The method, boiled down:
as §1

For assay [3], the target named is T3, human JAK3 (a.a. 781-1124) (Homo sapiens, UniProt P52333).
T3 construct: JAK3 (a.a. 781-1124); His tag (N); made in house; host or cells: insect cells (baculovirus)
In words: In vitro JAK kinase assay (HTRF, phosphorylation of a biotinylated peptide), JAK3. The method, boiled down: as §1

Assay [4] concerns the target TYK2 (Homo sapiens, UniProt P29597). Nature of the assay: TYK2 kinase inhibition (Table A1).
The target of assay [5] is T4, Recombinant Human Anaplastic Lymphoma Kinase (Homo sapiens, UniProt Q9UM73).
T4 construct: purchased Invitrogen, Carlsbad, Calif
In words: ALK HTRF kinase assay. The method, boiled down:
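Recombinant human ALK phosphorylated a biotinylated synthetic peptide. Phosphotyrosine was detected by TR-FRET between a Eu-labelled anti-phosphotyrosine antibody and streptavidin-allophycocyanin. IC50 values came from fitting signal against inhibitor concentration to a four-parameter logistic equation with variable Hill slope.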

Setting [6] is: method AA1 (90 μM ATP) or AA2 (1000 μM ATP), not stated per value.
The mark [7] stands for this setting: method AA1 (30 μM ATP) or AA2 (1000 μM ATP), not stated per value.
[8] abbreviates: method AA1 (3 μM ATP) or AA2 (1000 μM ATP), not stated per value.
[9] abbreviates: compound at 500 nM or 1 mM, 90 μM ATP.
Where [10] appears, read: Table B1, cells without percent sign.
The mark [11] stands for this setting: percentage inhibition of the example compound at a concentration of 500 nM or 1 mM (not specified which).
[12] abbreviates: compound at a concentration of 500 nM or 1 mM (not specified), cells shown as percentage.

SMILES strings stand for the structures. pIC50: −log10 of the molar value. Where a name gives a salt, the structure may show the parent alone. Read-outs that look alike come from different tables or passages of the source.

TYK2, sequence (P29597 whole entry): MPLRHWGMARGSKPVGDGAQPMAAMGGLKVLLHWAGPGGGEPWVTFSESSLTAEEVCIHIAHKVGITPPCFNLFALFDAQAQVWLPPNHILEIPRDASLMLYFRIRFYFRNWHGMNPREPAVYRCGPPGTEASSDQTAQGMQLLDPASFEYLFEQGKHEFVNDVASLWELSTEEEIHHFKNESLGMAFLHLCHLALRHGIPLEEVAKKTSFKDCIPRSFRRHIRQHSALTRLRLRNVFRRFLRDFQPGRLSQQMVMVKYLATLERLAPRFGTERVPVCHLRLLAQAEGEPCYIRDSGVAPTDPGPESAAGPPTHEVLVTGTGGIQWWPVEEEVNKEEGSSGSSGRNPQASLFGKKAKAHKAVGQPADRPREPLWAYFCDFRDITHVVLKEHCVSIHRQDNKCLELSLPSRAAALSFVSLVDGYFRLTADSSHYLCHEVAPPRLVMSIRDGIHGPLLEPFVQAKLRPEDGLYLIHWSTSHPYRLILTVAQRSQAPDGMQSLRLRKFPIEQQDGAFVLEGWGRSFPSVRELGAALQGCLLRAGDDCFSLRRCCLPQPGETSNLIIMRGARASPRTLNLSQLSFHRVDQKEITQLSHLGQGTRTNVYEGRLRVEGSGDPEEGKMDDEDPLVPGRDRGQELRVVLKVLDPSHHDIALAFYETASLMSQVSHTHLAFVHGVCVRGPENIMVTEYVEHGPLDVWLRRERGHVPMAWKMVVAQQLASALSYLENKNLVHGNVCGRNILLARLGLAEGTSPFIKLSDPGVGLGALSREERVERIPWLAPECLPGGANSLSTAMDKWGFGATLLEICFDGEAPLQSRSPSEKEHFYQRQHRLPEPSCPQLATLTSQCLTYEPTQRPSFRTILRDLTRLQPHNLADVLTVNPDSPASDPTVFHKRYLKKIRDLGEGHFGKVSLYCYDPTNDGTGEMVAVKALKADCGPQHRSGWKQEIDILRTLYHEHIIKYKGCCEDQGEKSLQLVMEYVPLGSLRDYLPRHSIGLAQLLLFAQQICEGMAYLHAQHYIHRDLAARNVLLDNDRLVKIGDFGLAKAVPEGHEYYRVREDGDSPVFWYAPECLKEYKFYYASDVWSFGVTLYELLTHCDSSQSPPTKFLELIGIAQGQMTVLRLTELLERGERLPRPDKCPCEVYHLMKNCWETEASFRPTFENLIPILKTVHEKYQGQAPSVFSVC
T4 sequence (Q9UM73 19-1620): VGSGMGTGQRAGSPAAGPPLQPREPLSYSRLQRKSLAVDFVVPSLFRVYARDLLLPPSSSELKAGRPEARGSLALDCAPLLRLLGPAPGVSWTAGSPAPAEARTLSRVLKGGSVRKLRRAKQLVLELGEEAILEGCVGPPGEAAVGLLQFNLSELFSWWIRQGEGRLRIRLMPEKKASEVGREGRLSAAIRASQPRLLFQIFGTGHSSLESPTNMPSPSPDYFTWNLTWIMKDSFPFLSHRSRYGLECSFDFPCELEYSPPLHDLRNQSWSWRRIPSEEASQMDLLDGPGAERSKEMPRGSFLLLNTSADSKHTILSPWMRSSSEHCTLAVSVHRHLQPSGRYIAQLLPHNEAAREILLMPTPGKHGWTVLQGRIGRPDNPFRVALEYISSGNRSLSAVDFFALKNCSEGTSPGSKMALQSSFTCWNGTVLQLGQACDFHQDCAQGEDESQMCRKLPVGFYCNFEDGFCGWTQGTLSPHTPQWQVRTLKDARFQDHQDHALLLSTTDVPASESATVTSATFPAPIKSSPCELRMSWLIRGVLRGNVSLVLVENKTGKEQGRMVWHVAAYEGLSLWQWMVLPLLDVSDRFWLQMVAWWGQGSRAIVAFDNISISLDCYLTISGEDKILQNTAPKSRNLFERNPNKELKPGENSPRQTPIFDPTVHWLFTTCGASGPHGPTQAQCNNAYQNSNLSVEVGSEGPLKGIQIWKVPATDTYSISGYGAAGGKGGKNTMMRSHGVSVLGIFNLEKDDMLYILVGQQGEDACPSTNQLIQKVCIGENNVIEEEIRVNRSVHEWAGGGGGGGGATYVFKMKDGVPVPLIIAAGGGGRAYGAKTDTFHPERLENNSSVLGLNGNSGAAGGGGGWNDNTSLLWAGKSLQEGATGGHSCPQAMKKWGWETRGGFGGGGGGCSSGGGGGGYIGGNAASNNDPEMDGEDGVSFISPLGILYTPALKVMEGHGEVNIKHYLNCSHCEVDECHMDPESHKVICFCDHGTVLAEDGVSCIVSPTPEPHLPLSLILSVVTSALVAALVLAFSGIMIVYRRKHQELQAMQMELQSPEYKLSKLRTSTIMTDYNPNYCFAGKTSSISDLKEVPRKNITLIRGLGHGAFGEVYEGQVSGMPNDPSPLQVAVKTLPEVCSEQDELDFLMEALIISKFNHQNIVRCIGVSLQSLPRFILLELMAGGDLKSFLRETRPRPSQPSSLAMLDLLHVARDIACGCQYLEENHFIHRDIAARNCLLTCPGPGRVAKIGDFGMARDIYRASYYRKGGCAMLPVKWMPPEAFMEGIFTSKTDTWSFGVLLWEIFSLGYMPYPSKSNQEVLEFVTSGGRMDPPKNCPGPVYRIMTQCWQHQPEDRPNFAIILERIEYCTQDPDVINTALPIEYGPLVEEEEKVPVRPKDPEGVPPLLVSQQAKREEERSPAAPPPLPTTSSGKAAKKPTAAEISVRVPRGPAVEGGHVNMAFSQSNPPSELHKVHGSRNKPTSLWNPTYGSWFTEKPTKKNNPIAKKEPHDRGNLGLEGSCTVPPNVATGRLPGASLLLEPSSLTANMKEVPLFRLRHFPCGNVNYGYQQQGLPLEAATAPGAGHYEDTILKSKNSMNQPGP
T2 sequence (O60674 828-1132): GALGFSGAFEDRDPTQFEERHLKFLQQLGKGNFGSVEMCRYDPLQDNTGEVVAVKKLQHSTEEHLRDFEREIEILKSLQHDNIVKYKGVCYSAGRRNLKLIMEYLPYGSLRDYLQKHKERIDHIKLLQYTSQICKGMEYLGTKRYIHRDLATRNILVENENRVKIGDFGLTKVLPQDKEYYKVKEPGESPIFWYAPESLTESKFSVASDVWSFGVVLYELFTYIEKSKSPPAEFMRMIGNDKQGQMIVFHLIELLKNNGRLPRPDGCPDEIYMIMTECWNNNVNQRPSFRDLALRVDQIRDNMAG
T1 sequence (P23458 849-1154): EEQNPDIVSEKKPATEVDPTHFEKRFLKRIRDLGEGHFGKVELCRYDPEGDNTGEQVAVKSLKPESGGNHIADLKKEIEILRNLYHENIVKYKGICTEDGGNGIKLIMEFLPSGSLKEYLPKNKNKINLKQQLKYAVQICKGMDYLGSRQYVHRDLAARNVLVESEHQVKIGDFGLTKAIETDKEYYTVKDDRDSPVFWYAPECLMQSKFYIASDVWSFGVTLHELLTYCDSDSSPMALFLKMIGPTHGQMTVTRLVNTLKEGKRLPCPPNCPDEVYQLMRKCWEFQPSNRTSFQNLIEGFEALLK
T3 sequence (P52333 781-1124): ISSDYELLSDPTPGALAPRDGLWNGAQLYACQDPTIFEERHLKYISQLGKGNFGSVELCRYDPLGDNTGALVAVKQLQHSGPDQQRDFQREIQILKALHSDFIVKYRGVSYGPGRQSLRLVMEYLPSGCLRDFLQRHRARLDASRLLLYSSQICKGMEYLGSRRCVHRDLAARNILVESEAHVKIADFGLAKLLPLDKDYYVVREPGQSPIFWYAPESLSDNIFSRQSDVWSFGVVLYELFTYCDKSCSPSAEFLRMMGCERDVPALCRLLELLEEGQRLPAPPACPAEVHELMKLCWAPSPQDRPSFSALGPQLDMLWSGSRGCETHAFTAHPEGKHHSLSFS

By pIC50 is commonly meant the negative decadic logarithm of the IC50, by convention in mol/L. For the compound `N#CCC(=O)Nc1ccc2cc1CCc1cccc(c1)Nc1ncc(Cl)c(n1)N2` [Example A65, N-[6-Chloro-2,4,8,22-tetraazatetracyclo[14.3.1.1(3,7).1(9,13)]docosa-1(20), 3(22),4,6,9(21),10,12,16,18-nonaen-12-yl]-2-cyanoacetamide trifluoroacetate], the pIC50 in assay [1] (setting [6]) is 8.05; in assay [2] (setting [7]) it was 7.96; in assay [3] (setting [8]) it was 8.14; in assay [4] it was 7.77. The “ALK % of inhibition at a concentration of 500 nM or 1 mM” value (from here on “ALK % of inhibition”) in assay [5] (setting [9]) is reported as 39%.
For `CCCS(=O)(=O)Nc1ccc2cc1CCc1cccc(c1)Nc1ncc(Cl)c(n1)N2` [Example B142, N-[6-Chloro-2,4,8,22-tetraazatetracyclo[14.3.1.1(3,7).1(9,13)]docosa-1(20), 3(22),4,6,9(21),10,12,16,18-nonaen-12-yl]propane-1-sulfonamide trifluoroacetate], the pIC50 in assay [1] (Table B1) is 9.07; in assay [2] (Table B1), 9.51; in assay [3] (Table B1) it was 8.34; in assay [4] (Table B1), 8.82; in assay [5] (setting [10]), 6.00.
As to `CN(C)S(=O)(=O)NCCNC(=O)Nc1ccc2cc1CCc1cccc(c1)Nc1ncc(Cl)c(n1)N2` [Example B328, N-[6-chloro-2,4,8,22-tetraazatetracyclo[14.3.1.1(3,7).1(9,13)]docosa-1(20),3(22),4,6,9(21),10,12,16,18-nonaen-12-yl]-N′-(2-{[(dimethylamino)sulfonyl]amino}ethyl)urea trifluoroacetate], the pIC50 in assay [1] (Table B1) is 7.74; in assay [2] (Table B1) it was 7.60; in assay [3] (Table B1) it was 7.62; in assay [4] (Table B1), 8.15. Moreover, in assay [5] (setting [11]), the “ALK % of inhibition” value came out at 16%.
With `Cc1ccc(Cl)cc1NC(=O)Nc1ccc2cc1CCc1cccc(c1)Nc1ncc(Cl)c(n1)N2` [Example B123, N-(5-Chloro-2-methylphenyl)-N′-[6-chloro-2,4,8,22-tetraazatetracyclo[14.3.1.1(3,7).1(9,13)]docosa-1(20),3(22),4,6,9(21),10,12,16,18-nonaen-12-yl]urea trifluoroacetate], the pIC50 is 8.10 in assay [1] (Table B1), 7.82 in assay [2] (Table B1), 6.96 in assay [3] (Table B1) and 7.49 in assay [4] (Table B1). The “ALK % of inhibition” value in assay [5] (setting [12]) is recorded as 16%.
For `CC(=O)N1CCN(C(=O)COc2ccc3cc2CCc2cccc(c2)Nc2ncc(Cl)c(n2)N3)CC1` [Example A20, 12-[2-(4-Acetylpiperazin-1-yl)-2-oxoethoxy]-6-chloro-2,4,8,22-tetraazatetracyclo[14.3.1.1(3,7).1(9,13)]docosa-1(20),3(22),4,6,9(21),10,12,16,18-nonaene trifluoroacetate], the pIC50 in assay [1] (setting [6]) is 7.92; in assay [2] (setting [7]), 8.09; in assay [3] (setting [8]), 7.11; in assay [4] it was 7.57. Moreover, the “ALK % of inhibition” value in assay [5] (setting [9]) is 17%.
Turning to `Cc1ccc(C(=O)Nc2ccc3cc2CCc2cccc(c2)Nc2ncc(Cl)c(n2)N3)cc1` [Example B47, N-[6-Chloro-2,4,8,22-tetraazatetracyclo[14.3.1.1(3,7).1(9,13)]docosa-1(20), 3(22),4,6,9(21),10,12,16,18-nonaen-12-yl]-4-methylbenzamide trifluoroacetate], the pIC50 was 9.15 in assay [1] (Table B1); 8.82 in assay [2] (Table B1); 8.02 in assay [3] (Table B1); 8.49 in assay [4] (Table B1); 6.74 in assay [5] (setting [10]).
On to `O=C(NCc1ccccc1)Nc1cc2cc(c1)OCCSc1cccc(c1)Nc1nc(ncc1Cl)N2` [Example D66, N-Benzyl-N′-[6-chloro-17-oxa-14-thia-2,4,8,24-tetraazatetracyclo[16.3.1.1(3,7).1(9,13)]tetracosa-1(22),3(24),4,6,9(23),10,12,18,20-nonaen-20-yl]urea trifluoroacetate], for which the pIC50 was 8.14 in assay [1] (Table D1); 8.52 in assay [2] (Table D1); 8.02 in assay [3] (Table D1); 8.47 in assay [4] (Table D1); 6.11 in assay [5] (Table D1, 90 μM ATP).
In the case of `O=C(Nc1ccccc1CCl)Nc1ccc2cc1CCc1cccc(c1)Nc1ncc(Cl)c(n1)N2` [Example B108, N-[2-(Chloromethyl)phenyl]-N′-[6-chloro-2,4,8,22-tetraazatetracyclo[14.3.1.1(3,7).1(9,13)]docosa-1(20),3(22),4,6,9(21),10,12,16,18-nonaen-12-yl]urea trifluoroacetate], the pIC50 is 8.80 in assay [1] (Table B1), 8.34 in assay [2] (Table B1), 7.64 in assay [3] (Table B1) and 8.68 in assay [4] (Table B1). The “ALK % of inhibition” value in assay [5] (setting [12]) came to 21%.
Take `Cn1cncc1C(=O)N1CCC(CC(=O)Nc2ccc3cc2CCc2cncc(c2)Nc2ncc(Cl)c(n2)N3)CC1` [Example A134, N-[6-Chloro-2,4,8,18,22-pentaazatetracyclo[14.3.1.1(3,7).1(9,13)]docosa-1(20),3(22),4,6,9(21),10,12,16,18-nonaen-12-yl]-2-{1-[(1-methyl-1H-imidazol-5yl)carbonyl]piperidin-4-yl}acetamide bis(trifluoroacetate)]: the pIC50 in assay [1] (setting [6]) is 8.21; in assay [2] (setting [7]) it was 7.74; in assay [3] (setting [8]) it was 6.65; in assay [4], 7.60. For the same compound, the “ALK % of inhibition” value in assay [5] (setting [9]) was found to be 30%.
For `Clc1cnc2nc1Nc1ccc(CN[C@H]3CCNC3)c(c1)CCc1cccc(c1)N2` [Example B223, (3S)—N-{[6-Chloro-2,4,8,22-tetraazatetracyclo[14.3.1.1(3,7).1(9,13)]docosa-1(20),3(22),4,6,9(21),10,12,16,18-nonaen-12-yl]methyl}pyrrolidin-3-amine tris(trifluoroacetate)], the pIC50 in assay [1] (Table B1) was 7.77; in assay [2] (Table B1) it was 8.13; in assay [3] (Table B1), 7.54; in assay [4] (Table B1) it was 7.38. Also, the “ALK % of inhibition” value in assay [5] (setting [12]) was 41%.
Take `O=C(O)c1cccc(S(=O)(=O)Nc2ccc3cc2CCc2cccc(c2)Nc2ncc(Cl)c(n2)N3)c1` [Example B159, 3-({[6-Chloro-2,4,8,22-tetraazatetracyclo[14.3.1.1(3,7).1(9,13)]docosa-1(20),3(22),4,6,9(21),10,12,16,18-nonaen-12-yl]amino}sulfonyl)benzoic acid trifluoroacetate]: the pIC50 in assay [1] (Table B1) is 8.89; in assay [2] (Table B1), 9.34; in assay [3] (Table B1) it was 8.51; in assay [4] (Table B1), 8.80. Besides, the “ALK % of inhibition” value in assay [5] (setting [12]) was 82%.
In the case of `NC(=O)N1CCN(c2ccc(-c3cc4cc(c3)Nc3ncc(Cl)c(n3)Nc3cccc(c3)OCC4)cn2)CC1` [Example D40, 4-{5-[6-Chloro-14-oxa-2,4,8,23-tetraazatetracyclo[15.3.1.1(3,7).1(9,13)]tricosa-1(21),3(23),4,6,9(22),10,12,17,19-nonaen-19-yl]pyridin-2-yl}piperazine-1-carboxamide bis(trifluoroacetate)], the pIC50 in assay [1] (Table D1) is 9.05; in assay [2] (Table D1) it was 9.15; in assay [3] (Table D1), 8.14; in assay [4] (Table D1), 8.68; in assay [5] (Table D1, 90 μM ATP) it was 6.74.
For the compound `COCC(C)NC(=O)Nc1ccc2cc1CCc1cccc(c1)Nc1ncc(Cl)c(n1)N2` (stereo not drawn) [Example B247, N-[6-Chloro-2,4,8,22-tetraazatetracyclo[14.3.1.1(3,7).1(9,13)]docosa-1(20),3(22),4,6,9(21),10,12,16,18-nonaen-12-yl]-N′-(2-methoxy-1-methylethyl)ureatrifluoroacetate], the pIC50 in assay [1] (Table B1) was 8.19; in assay [2] (Table B1), 8.40; in assay [3] (Table B1) it was 7.14; in assay [4] (Table B1), 7.70. The “ALK % of inhibition” value in assay [5] (setting [12]) amounted to 7.5%.
Turning to `O=C(CC1CCNCC1)Nc1ccc2cc1CCc1cccc(c1)Nc1ncc(Cl)c(n1)N2` [Example A46, N-[6-Chloro-2,4,8,22-tetraazatetracyclo[14.3.1.1(3,7).1(9,13)]docosa-1(20), 3(22),4,6,9(21),10,12,16,18-nonaen-12-yl]-2-piperidin-4-ylacetamide bis(trifluoroacetate)], the pIC50 in assay [1] (setting [6]) was 8.00; in assay [2] (setting [7]), 7.80; in assay [3] (setting [8]) it was 7.31; in assay [4], 7.38. Besides, the “ALK % of inhibition” value in assay [5] (setting [9]) turned out to be 20%.
For `O=C(NCCNS(=O)(=O)c1ccc(Cl)nc1)Nc1ccc2cc1CCc1cccc(c1)Nc1ncc(Cl)c(n1)N2` [Example B331, 6-Chloro-N-{2-[({[6-chloro-2,4,8,22-tetraazatetracyclo[14.3.1.1(3,7).1(9,13)]docosa-1(20),3(22),4,6,9(21),10,12,16,18-nonaen-12-yl]amino}carbonyl)amino]ethyl}pyridine-3-sulfonamide trifluoroacetate], the pIC50 is 8.70 in assay [1] (Table B1), 8.44 in assay [2] (Table B1), 8.57 in assay [3] (Table B1) and 7.80 in assay [4] (Table B1). The “ALK % of inhibition” value in assay [5] (setting [11]) came to 27%.

Values taken from patent publication US8871753B2, “Macrocyclic compounds and their use as kinase inhibitors” (Incyte Corporation, priority 2008, dated 2014).
